According to patent US20210161997A1, “TREATING DISEASES VIA TARGETED MODULATION OF GENE SIGNALING NETWORKS” (Camp4 Therapeutics Corporation, priority 2018, published 2021):
Where a name gives a salt, the structure may show the parent alone.

System: ANGPTL3
Assay: RNA-seq of ANGPTL3 expression in compound-treated primary human hepatocytes
Type: cell-based
Settings: additional compounds (Table 13), linear fold change
Experimental: Human hepatocytes were obtained from two donors from Massachusetts General Hospital, namely MGH54 and MGH63, and one donor from Lonza, namely HUM4111B. Cryopreserved hepatocytes were cultured in plating media for 16 hours, transferred to maintenance media for 4 hours. Cultured on serum-free media for 2 hours, then a compound was added. The hepatocytes were maintained on the serum-free media for 16 hours prior to gene expression analysis. Primary human hepatocytes were stored in the vapor phase of a liquid nitrogen freezer (about −130° C.).
Human hepatocytes cultured as described above were plated in 24-well format, adding 375,000 cells per well in a volume of 500 ul plating medium. Four hours before treatment, cells were washed with PBS and the medium was changed to either: fresh maintenance medium (complete) or modified maintenance medium.
Compound stocks were prepared at 1000× final concentration and added in a 2-step dilution to the medium to reduce risk of a compound precipitating out of solution when added to the cells, and to ensure reasonable pipetting volumes. One at a time, each compound was first diluted 10-fold in warm (about 37° C.) modified maintenance medium (initial dilution=ID), mixed by vortexing, and the ID was diluted 100-fold into the cell culture (e.g. 5.1 ul into 1 well of a 24-well plate containing 0.5 mL medium). The plate was mixed by carefully swirling and after all wells were treated and returned to the incubator overnight. If desired, separate plates/wells were treated with vehicle-only controls and/or positive controls. If using multi-well plates, controls were included on each plate. After about 18 hours, cells were harvested for further analysis, e.g., ChIP-seq, RNA-seq, ATAC-seq, etc.
This protocol is a modified version of the following protocols: MagMAX mirVana Total RNA Isolation Kit User Guide (Applied Biosystems #MAN0011131 Rev B.0), NEBNext Poly(A) mRNA Magnetic Isolation Module (E7490), and NEBNext Ultra Directional RNA Library Prep Kit for Illumina (E7420) (New England Biosystems #E74901).
The MagMAX mirVana kit instructions (the section titled “Isolate RNA from cells” on pages 14-17) were used for isolation of total RNA from cells in culture. Two hundred μl of Lysis Binding Mix was used per well of the multiwell plate containing adherent cells (usually a 24-well plate).
For mRNA isolation and library prep, the NEBNext Poly(A) mRNA Magnetic Isolation Module and Directional Prep kit was used. RNA isolated from cells above was quantified, and prepared in […] of each sample in 50 μl of nuclease-free water. This protocol may be run in microfuge tubes or in a 96-well plate.
All pass filter reads from each sample were mapped against the human genome (assembly GRCh38/GCA_000001405.15 “no alt” analysis set merged with hs38d1/GCA_000786075.2) using two pass mapping via STAR version 2.5.3a (alignment parameters alignIntronMin=20; alignIntronMax=1000000; outFilterMismatchNmax=999; outFilterMismatchNoverLmax=0.05; outFilterType=BySJout; outFilterMultimapNmax=20; alignSJoverhangMin=8; alignSJDBoverhangMin=1; alignMatesGapMax=1000000) (Dobin et al., Bioinformatics (2012) 29(1):15-21). Genomic alignments were converted to transcriptome alignments based on reference transcript annotations from the Human GENCODE Gene Set release 24 (Harrow et al., Genome Res. (2012) 22(9): 1760-1774). Using unique and multimapped transcriptomic alignments, gene-level abundance estimates were computed using RSEM version 1.3.0 (Li and Dewey, BMC Bioinformatics (2011) 12:323) in a strand-aware manner, and including confidence interval sampling calculations, to arrive at posterior mean estimates (PME) of abundances (counts and normalized FPKM—fragments per kilobase of exon per million mapped fragments) from the underlying Bayesian model. Standard QC were applied (read integrity, mapping statistics, library complexity, fragment bias) to remove unsatisfactory samples.

| Compound | ANGPTL3-LINEAR FOLD CHANGE |
| --- | --- |
| Cl.Clc1cccc(N2CCNCC2)c1 [1(3-Chlorophenyl)piperazine HCl] | 0.4414 |
| CCN1CCN(Cc2ccc(-c3cc4c(N[C@H](C)c5ccccc5)ncnc4[nH]3)cc2)CC1 [AEE788 (NVP-AEE788)] | 0.1684 |
| COc1cc(N2CCC(N3CCN(C)CC3)CC2)ccc1Nc1ncnc(Nc2ccccc2S(=O)(=O)C(C)C)n1 [ASP3026] | 0.3923 |
| N#Cc1ccc2[nH]c(O)c(-c3ccc(CN4CCOCC4)cn3)c2c1 [AZD1080] | 0.2238 |
| COc1cc(C)c(/C=C/C(C)=C/C=C/C(C)=C/C(=O)O)c(C)c1C [Acitretin] | 0.4763 |
| Nc1ncn([C@@H]2O[C@H](CO)[C@@H](O)[C@H]2O)c(=O)n1 [Azacitidine] | 0.2316 |
| CC[C@@H]1C(=O)N(C)c2cnc(Nc3ccc(C(=O)NC4CCN(C)CC4)cc3OC)nc2N1C1CCCC1 [BI 2536] | 0.2045 |
| CC(C)NC(=O)C1CCC(n2c(NC(=O)c3ccc(F)cc3)nc3ccc(CN4CCC(C(C)(C)O)CC4)cc32)CC1 (stereo not drawn) [Belizatinib (TSR-011), Belizatinib] | 0.3121 |
| COCCOCOc1cc2ccc(-c3ccc(C(=O)O)cc3)cc2cc1C12CC3CC(CC(C3)C1)C2 [CD 2665] | 0.395 |
| NC(=O)N[C@@H](CCC(=O)O)C(=O)O [Carglumic Acid] | 0.1975 |
| C[C@@H](NCCCc1cccc(C(F)(F)F)c1)c1cccc2ccccc12 [Cinacalcet HCl] | 0.3789 |
| O=C(c1ccc(F)c(F)c1Nc1ccc(I)cc1F)N1CC(O)([C@@H]2CCCCN2)C1 [Cobimetinib (GDC-0973, RG7420), Cobimetinib] | 0.2333 |
| CO[C@H]1C[C@@H]2CC[C@@H](C)[C@@](O)(O2)C(=O)C(=O)N2CCCC[C@H]2C(=O)O[C@H]([C@H](C)C[C@@H]2CC[C@@H](OCCO)[C@H](OC)C2)CC(=O)[C@H](C)/C=C(\C)[C@@H](O)[C@@H](OC)C(=O)[C@H](C)C[C@H](C)/C=C/C=C/C=C/1C [Everolimus (RAD001), Everolimus] | 0.483 |
| Cc1cnc(Nc2ccc(OCCN3CCCC3)cc2)nc1Nc1cccc(S(=O)(=O)NC(C)(C)C)c1 [Fedratinib (SAR302503, TG101348), Fedratinib] | 0.1119 |
| COCCCC/C(=N\OCCN)c1ccc(C(F)(F)F)cc1 [Fluvoxamine maleate] | 0.3231 |
| COc1cc2c(Oc3ccc(NC(=O)C4(C(=O)Nc5ccc(F)cc5)CC4)cc3F)ccnc2cc1OCCCN1CCOCC1 [Foretinib (GSK1363089), Foretinib] | 0.3368 |
| CCNC(=O)Nc1ccc(-c2nc3c(c(N4CCOC[C@@H]4C)n2)CCN(C2COC2)C3)cc1 [GDC-0349] | 0.4506 |
| C[C@@H](Oc1cc(-n2cnc3ccc(CN4CCN(C)CC4)cc32)sc1C(N)=O)c1ccccc1C(F)(F)F [GSK461364] | 0.3078 |
| CNc1nc(-c2ccc3c(N)n[nH]c3c2)cc(N2C[C@@H](C(=O)NC3CCCCC3)CC[C@H]2C)n1 [GSK2334470] | 0.4538 |
| O=C(O)Cc1cccc(OCCCN(Cc2cccc(C(F)(F)F)c2Cl)CC(c2ccccc2)c2ccccc2)c1 [GW3965] | 2.071 |
| c1ccc2c(CCNc3ccc(Nc4ccncc4)cc3)c[nH]c2c1 [JNJ-26854165 (Serdemetan), Serdemetan] | 0.1817 |
| Cc1c(OCC(F)(F)F)ccnc1C[S+]([O-])c1nc2ccccc2[nH]1 (stereo not drawn) [Lansoprazole] | 0.4763 |
| O=C1CCc2c(Oc3ccc4c(c3)[C@@H]3[C@H](O4)[C@H]3c3nc4ccc(C(F)(F)F)cc4[nH]3)ccnc2N1 [Lifirafenib (BGB-283), Lifirafenib] | 0.3585 |
| O=C(O)c1ccc(Nc2ncc3c(n2)-c2ccc(Cl)cc2C(c2c(F)cccc2F)=NC3)cc1 [MLN8054] | 0.2755 |

| Compound | ANGPTL3-LINEAR FOLD CHANGE |
| --- | --- |
| FC(F)(F)c1ccc(/C=C/c2nc(COc3ccc(CCCCn4ccnn4)cc3)co2)cc1 [Mubritinib (TAK 165), Mubritinib] | 0.3392 |
| COc1cc(N)c(Cl)cc1C(=O)NC1CCNCC1OC (stereo not drawn) [NORCISAPRIDE HYDROCHLORIDE] | 0.3763 |
| C=CC(=O)Nc1cccc(Oc2nc(Nc3ccc(N4CCN(C)CC4)cc3)nc3ccsc23)c1 [Olmutinib (HM61713, BI 1482694), Olmutinib] | 0.3057 |
| CNC(=O)c1ccc(C)c(-n2c(C)cc(OCc3ccc(F)cc3F)c(Br)c2=O)c1 [PH-797804] | 0.2736 |
| NCCC(O)(P(=O)(O)O)P(=O)(O)O [Pamidronate] | 0.1528 |
| N=C(N)c1ccc(OCCCCCOc2ccc(C(=N)N)cc2)cc1 [Pentamidine isethionate] | 0.1321 |
| CC(=O)c1ccc2c(c1)N(CCCN1CCC(CCO)CC1)c1ccccc1S2 [Piperacetazine] | 0.4033 |
| [H]/N=C(\N/C(=N/[H])Nc1ccc(Cl)cc1)NC(C)C [Proguanil] | 0.3536 |
| CCC[C@@H]1CC2=CC(=O)CC[C@]2(C)[C@H]2CC[C@@]3(C)[C@@H](CC[C@@]3(O)CCC(=O)[O-])[C@H]12.[K+] [RU 28318] | 0.4005 |
| Cc1nc2n(c(=O)c1CCN1CCC(c3noc4cc(F)ccc34)CC1)CCCC2 [Risperidone] | 0.3231 |
| C/C=C1\NC(=O)[C@H]2CSSCC/C=C/[C@H](CC(=O)N[C@H](C(C)C)C(=O)N2)OC(=O)[C@H](C(C)C)NC1=O [Romidepsin (FK228, Depsipeptide), Romidepsin] | 0.1349 |
| C[C@@H]1CN(Cc2ccc(F)cc2)[C@@H](C)CN1C(=O)c1cc2c(C(=O)C(=O)N(C)C)cn(C)c2cc1Cl [SCIO-469] | 0.3711 |
| Cc1cc(C)c(/C=C2\C(=O)Nc3ccccc32)[nH]1 [Semaxinib, Semaxanib] | 0.2449 |
| CCC(C)(C)C(=O)O[C@H]1C[C@@H](C)C=C2C=C[C@H](C)[C@H](CC[C@@H]3C[C@@H](O)CC(=O)O3)[C@H]21 [Simvastatin] | 0.2588 |
| Cc1c(C(=O)Nc2ccc(N3C[C@@H](C)O[C@@H](C)C3)nc2)cccc1-c1ccc(OC(F)(F)F)cc1 [Sonidegib (Erismodegib, NVP-LDE225), Sonidegib] | 0.4897 |
| CC(C)(Sc1cc(C(C)(C)C)c(O)c(C(C)(C)C)c1)Sc1cc(C(C)(C)C)c(OC(=O)CCC(=O)O)c(C(C)(C)C)c1 [Succinobucol] | 0.3896 |
| CC(C)(O)CC(=O)NCCn1ccc2ncnc(Nc3ccc(Oc4cccc(C(F)(F)F)c4)c(Cl)c3)c21 [TAK-285] | 0.3842 |
| CCc1nc(-c2cccc(C)c2)c(-c2ccnc(NC(=O)c3ccccc3)c2)s1 [TAK-715] | 0.4538 |
| CC/C(=C(\c1ccccc1)c1ccc(OCCN(C)C)cc1)c1ccccc1 [Tamoxifen] | 0.2606 |
| NC(=O)c1ccc(N(C(N)=O)c2c(F)cccc2F)nc1-c1ccc(F)cc1F [VX-702] | 0.4353 |
| O=C(CCCCCCC(=O)Nc1ccccc1)NO [Vorinostat (SAHA, MK0683), Vorinostat] | 0.3511 |
| CCn1c(=O)c(-c2cc[nH]n2)cc2c(C)nc(N)nc21 [Voxtalisib (XL765, SAR245409), Voxtalisib] | 0.4175 |
| COCCn1c2c([n+](Cc3cnccn3)c1C)C(=O)c1ccccc1C2=O [YM155 (Sepantronium Bromide), Sepantronium Bromide] | 0.3487 |
| COc1cc(C(=O)NS(=O)(=O)c2ccccc2C)ccc1Cc1cn(C)c2ccc(NC(=O)OC3CCCC3)cc12 [Zafirlukast] | 0.4506 |
